Source: PMC9076611, “Ataluren binds to multiple protein synthesis apparatus sites and competitively inhibits release factor-dependent termination” (Nature Communications, 2022)

Tests used:
eRF1 [1] = biological target: T1, eRF1 (Saccharomyces cerevisiae, UniProt P12385); assay: photoaffinity labeling with [3H]-AzAt, saturation curve on isolated eRF1 (SDS-PAGE gel slice radioactivity); assay type: binding
T1 construct: gene SUP45; Full-length S. cerevisiae eRF1
Description: photoaffinity labeling with [3H]-AzAt, saturation curve on isolated eRF1 (SDS-PAGE gel slice radioactivity) on eRF1 | Photoincorporation into isolated eRF1 as a function of AzAt concentration results in a simple hyperbolic saturation curve

eRF1 [2] = biological target: T1, eRF1; assay: competition with [3H]-AzAt photoaffinity labeling of isolated eRF1 ([…] ataluren vs […] AzAt); assay type: binding

T1 sequence (P12385 whole entry): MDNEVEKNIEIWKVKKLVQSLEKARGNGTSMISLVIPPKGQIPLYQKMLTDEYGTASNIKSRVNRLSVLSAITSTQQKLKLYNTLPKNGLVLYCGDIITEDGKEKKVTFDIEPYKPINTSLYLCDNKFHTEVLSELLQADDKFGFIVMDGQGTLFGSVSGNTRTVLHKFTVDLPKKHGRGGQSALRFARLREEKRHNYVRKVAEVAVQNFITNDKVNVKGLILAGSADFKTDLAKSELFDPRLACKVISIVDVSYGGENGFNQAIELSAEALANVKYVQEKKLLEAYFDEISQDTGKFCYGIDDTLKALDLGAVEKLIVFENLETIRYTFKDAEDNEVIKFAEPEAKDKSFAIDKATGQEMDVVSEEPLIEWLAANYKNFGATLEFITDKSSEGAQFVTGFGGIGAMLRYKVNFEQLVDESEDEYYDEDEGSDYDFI

[N-]=[N+]=Nc1ccc(-c2nc(-c3cccc(C(=O)O)c3)no2)cc1 [AzAt, 3-(5-(4-azidophenyl)-1,2,4-oxadiazol-3-yl) benzoic acid]
EC50 (eRF1 [1]): 110 ± 20 µM

O=C(O)c1cccc(-c2noc(-c3ccccc3F)n2)c1 [ataluren]
competition with [3H]-AzAt photoaffinity labeling of isolated eRF1 (1000 μM atal) (eRF1 [2]): both ataluren and GJ072, an ataluren-like TRID, substantially inhibit AzAt photoincorporation into isolated eRF1
